Experimental data as given in patent publication US6784175B2, “Use of substituted 1-amino-5-phenylpentane-3-ol and/or 1-amino-6-phenylhexane-3-ol compounds as medicaments” (Gruenenthal GmbH, priority 2000, dated 2004).

What was measured:
[1] = tested on: (+)-MK801 binding site of the ionotropic NMDA receptor; assay: (3H)-(+)-MK801 receptor bonding test on rat cerebral membrane homogenates; conditions: 1 nmol/l (3H)-(+)-MK801, rat brain membrane homogenate; for Percentage inhibition of (3H)-(+)-MK801 binding at 10 μM: 10 μmol/l compound, triple determinations; for Ki: calculated from IC50 by Cheng-Prusoff equation
Procedure: Research to determine the NMDA antagonistic effect of each compound in general formula I was carried out on cerebral membrane homogenates (homogenate of rat brain without cerebellum, pons and medulla oblongata taken from male Wistar rats (Charles River, Sulzfeld, Germany)).
For this purpose, after separating the cerebellum, pons and medulla oblongata, freshly prepared rat brains were macerated in 50 mmol/l of tris/HCl (pH 7.7) with a Polytron homogeniser (model PT3000, Kinematika AG, Littau, Switzerland) at 6000 revolutions per minute (rpm) for 1 minute with ice cooling and centrifuged for 15 minutes at 4° C. and 60,000 g. After decanting and discarding the supernatant, again placing in 50 mmol/l of tris/HCl (pH 7.7) and macerating the membrane pellet with a homogeniser at 2000 rpm for 1 minute, it was centrifuged again for 15 minutes at 4° C. and 60,000 g. The supernatant was again discarding and the membrane pellet homogenised (2000 rpm for 1 minute) in 50 mmol/l of tris/HCl (pH 7.7) and frozen in aliquots at −70° C.
For the receptor bonding test, each aliquot was defrosted and then centrifuged for 15 minutes at 4° C. and 60,000 g. After decanting and discarding the supernatant, the membrane pellet was taken up with bonding test buffer and homogenised (2000 rpm for 1 minute). The bonding test buffer was 5 mmol/l tris/HCl (pH 7.7) supplemented with 30 μmol/l of glycine and 100 μmol/l of glutamic acid.
1 nmol/l of (^3H)-(+)-MK801 ((5R, 10S)-(+)-5-methyl-10,11-dihydro-5H-dibenzo(a,d)cycloheptane-5,10-imine was used as a radioactively marked ligand (NET-972, NEN, Cologne Germany). The proportion of unspecific bonding was determined in the presence of 10 μmol/l of non-radioactively marked (+)-MK801 (RBI/Sigma, Deisenhofen, Germany). In further batches, each of the compounds of general formula I were added in series of concentrations and the displacement of the radioactive ligand out of its specific bond to the NMDA receptor determined. All the batches were subjected to triple determinations. The batches were each incubated for 40 minutes at 25° C. in a water bath and then harvested for determination of the radioactive ligand bound to the cerebral membrane homogenate by means of filtration through glass-fibre filters (GF/B) (Whatman GF/B, Hassel, Munich, Germany). The radioactivity retained by the glass-fibre filter discs was measured in a β counter (Packard TRI-CARB Liquid Scintillation Analyser 2000CA, Packard Instrument, Meriden, Conn. 06450, USA) after adding a scintillator (“Ready Protein” scintillator, Beckmann Coulter GmhH, Krefeld, Germany).
The percentage inhibition of the specific bonding of the ligand (^3H)-(+)-MK801 in the presence of 10 μmol/l of each compound of general formula I resulting from the triple batches is used as a measure of the affinity of the compound for the (+)-MK801 binding site of the ionotropic NMDA receptor. From batches with concentration series of these compounds of general formula I, the IC50 values (concentration of substituted compounds with 50% displacement of radioactive ligand out of its specific bond) were calculated in accordance with the law of mass action using non-linear regression. From these IC50 values, the Kj values were calculated in accordance with the Cheng-Prusoff equation (Y. Cheng, W. H. Prusoff, 1973, Biochem. Pharmacol., 22, pp 3099-3108).

SMILES	Percentage inhibition of (3H)-(+)-MK801 binding at 10 μM [1] [%]	Ki [1] [µM]	melting point [°C]
CN(C)C(c1ccccc1Cl)C1CCCCC1(O)CCc1ccccc1F.Cl (stereo not drawn) [Example 10, 2-[(2-chlorophenyl)dimethylaminomethyl]-1-[2-(2-fluorophenyl)ethyl]cyclohexanol, hydrochloride]	102	0.4	162 to 163
CN(C)C(c1ccccc1Br)C1CCCCC1(O)CCc1ccccc1.Cl (stereo not drawn) [Example 3, 2-[(2-bromophenyl)dimethylaminomethyl]-1-phenethylcyclohexanol, hydrochloride]	91	1.7	162 to 165
CN(C)C(c1ccccc1)C1CCCCC1(O)CCc1ccccc1.Cl (stereo not drawn) [Example 1, 2-(dimethylaminophenylmethyl)-1-phenethylcyclohexanol, hydrochloride]	56	3.8	100
CN(C)C(c1ccccc1)C1CCCCC1(O)CCc1cccc(Cl)c1.Cl (stereo not drawn) [Example 13, 1-[2-(3-chlorophenyl)ethyl]-2-(dimethylaminophenylmethyl)cyclohexanol, hydrochloride]	61	3.1	95
